In publication PMC10141139 (2023) one finds binding and IC50 data, which are given here for two compounds.

The subject of assay [1] is Negative control (RNA, single strand) UUACCCUUACCCUUACCCUUACCCUUA
As to the kind of experiment: ThT fluorescence light-up. The settings on record: pH 7.4, 34 °C, 5 µM RNA, 5 µM ThT highest tested.

Assay [2] deals with miniTERRA (RNA, G4) UUAGGGUUAGGGUUAGGGUUAGGGUUA
In words: ThT fluorescence light-up. To be noted: pH 7.4, 34 °C, 5 µM RNA, 5 µM ThT.

Assay [3] shares this test system. As to the kind of experiment: fluorescent indicator displacement (ThT). The settings on record: pH 7.4, 34 °C, 5 µM RNA, 5 µM ThT displaced.

As to `Cc1ccc2c(c1)sc(-c1ccc(N(C)C)cc1)[n+]2C`, the binding result was “no” in assay [1] (K+ (100 mM phosphate)), “no” in assay [1] (Na+ (100 mM phosphate)), “yes” in assay [2] (K+ (100 mM phosphate)) and “yes” in assay [2] (Na+ (100 mM phosphate)).
Turning to `NCCOc1cc(C(=O)Nc2cc(OCCN)c3ccccc3n2)nc(C(=O)Nc2cc(OCCN)c3ccccc3n2)c1`, the IC50 in assay [3] (K+ (100 mM phosphate)) came out at 17.23 ± 0.28 µM; in assay [3] (Na+ (100 mM phosphate)), 19.29 ± 0.25 µM.

What is called IC50 is the concentration that inhibits the measured activity by half. A low value points to higher potency.
